# pIC50: −log10 of the molar value. Activity calls are given as the source filed them. The rule behind the calls is not given here.
# System: S. cerevisiae tim23-1 mutant growth, luminescence
# Test: tim23-1 yeast growth suppression potency – luminescence, uHTS hits, counter-screen for tim10-1 yeast inhibitor project, dose response (AID 504544)
SMILES,pIC50,IC50
COc1cc(/C=C/c2ccc3cccc(O)c3n2)c(Br)cc1O,4.74,–
O=C(NNC(=S)Nc1cccc(C(F)(F)F)c1)c1ccc(Cl)cc1Cl,5.15,–
COc1ccc(Cl)cc1NC(=S)NCCc1ccc(F)cc1,4.90,–
CC(C)NC(=S)N/N=C1\CCCCc2ccccc21,4.96,–
CCCCc1ccc(NC(=S)Nc2ccc(Nc3ccc(OC)cc3)cc2)cc1,4.52,–
O=C(NC(=S)NNC(=O)c1ccccc1[N+](=O)[O-])c1ccc(Br)cc1,4.90,–
COc1ccc(/C=C/C(=O)c2ccccc2)cc1Cn1nnc2ccccc21,5.10,–
CN(CCCC(=O)O)c1ccc(N=Nc2ccc([N+](=O)[O-])cc2)cc1,4.94,–
C[C@@H]1CC=C[C@H]2[C@H]1C(=O)N(Cc1ccccc1)[C@H]2c1ccc(-c2ccoc2)cc1F,4.89,–
COc1ccc(Cl)cc1NC(=O)CN(C)C(=O)C12CC3CC(CC(Cl)(C3)C1)C2,4.62,–
COc1ccc2sc(N(CCCN(C)C)C(=O)c3ccc(S(=O)(=O)N4CCCc5ccccc54)cc3)nc2c1,4.92,–
CC(C)Nc1nnc(Sc2ccc(Cl)cc2[N+](=O)[O-])s1,5.58,–
CC1=C/C(=N\OS(=O)(=O)c2ccccc2)C=CC1=O,6.57,–
O=[N+]([O-])c1ccccc1N/N=C/c1c[nH]c2ccccc12,4.80,–
Cc1ccc(S(=O)(=O)c2nc(S(C)(=O)=O)sc2N2CCCCC2C)cc1 (stereo not given),4.93,–
CCOC(=O)c1c(CSc2ccc(C)cc2)n(C)c2cc(Br)c(O)c(CN(C)C)c12,4.70,–
Cc1ccc(NC(=O)c2cc(S(=O)(=O)NCCC3=CCCCC3)ccc2F)cc1,4.48,–
O=C(N/N=C/c1ccc[nH]1)c1cc(-c2ccc(Cl)cc2)nc2ccccc12,5.05,–
O=C(/C=C\c1ccc(-c2ccccc2)o1)c1ccccc1,5.52,–
CC[C@@H]1CC=C[C@H]2[C@H]1C(=O)N(Cc1ccccc1)[C@H]2c1ccoc1,5.13,–
O=C(/C=C/c1ccc2c(c1)OCCCO2)c1ccccc1O,4.74,–
Cc1onc(-c2ccc3c(c2)OCO3)c1-c1ccc2[nH]ccc2c1,4.97,–
CCCCNC(=S)N=Nc1c(O)[nH]c2ccccc12,5.31,–

SMILES,pIC50,IC50
COc1ccc(Br)cc1[C@H]1[C@H]2C=CC[C@@H](C)[C@@H]2C(=O)N1Cc1ccccc1,4.79,–
Nc1c(C(=O)Nc2ccccc2)c2nc3ccccc3nc2n1CCCN1CCOCC1,4.90,–
Fc1ccc(CNC(=S)Nc2cccc(C(F)(F)F)c2)cc1,4.91,–
CCOC(=O)c1ccc(NC(=O)CC2OCCN(CC)C2=O)cc1 (stereo not given),5.69,–
COc1ccc(C(=O)Nc2ccc(-n3nncc3C(C)(C)C)cc2)cc1,5.05,–
Clc1ccc(CNc2nc(CN3CCOCC3)nc3scc(-c4ccccc4)c23)cc1,4.94,–
O=C(OCn1ncc(Br)c(Br)c1=O)c1ccc(F)cc1,5.75,–
N#C/C(=N/Nc1ccc(OC(F)(F)F)cc1)C(N)=S,5.88,–
N=C(N)c1ccc(/C=C/c2ccc(C(=N)N)cc2O)cc1,5.19,–
O=c1oc2ccccc2c(O)c1/C=C1\C=Nc2ccccc21,5.26,–
COc1cc(C(=O)Nc2ccc(Cl)c(C(F)(F)F)c2)cc(OC)c1OC,4.48,–
Cc1cccc(NC(=S)N/N=C2/CCCCc3ccccc32)c1,5.13,–
CCOC(=O)c1c(OCC)[nH]c2c1cc(O)c1ccccc12,4.77,–
O=C(c1ccc2c3n(nc2c1)-c1ccccc1CO3)N1CCCCC1,5.01,–
CCSc1nc2ccccc2n1C(=O)/C=C\c1ccc(OC)c(OC)c1,4.93,–
Cc1ccccc1OCC(=O)Nc1ccc(S(=O)(=O)N2CCCC2)cc1,5.10,–
COc1ccc(NC2CCN(C3CC(=O)N(c4ccc(F)c(Cl)c4)C3=O)CC2)cc1 (stereo not given),5.25,–
COc1cc(N=c2ssnc2Cl)c(OC)cc1Cl,5.42,–
N/C(Cc1ccc(Cl)cc1)=N\OC(=O)c1ccc2ccccc2c1,6.42,–
C/C(=N\NC(=S)NCc1ccccc1)c1ccc(Cl)s1,4.76,–
Cc1cccc(NC(=O)c2ccc([N+](=O)[O-])s2)n1,5.81,–
Cn1c(NCCCO)nc2c(c1=O)C1(CCCCC1)Cc1ccccc1-2,5.06,–
Cc1ccc(/C(N)=N/OC(=O)c2ccc3c(c2)OCO3)cc1,4.81,–

SMILES,pIC50,IC50
Fc1ccccc1CNC(=S)Nc1cccc(C(F)(F)F)c1,4.93,–
CCCn1c(CC)nc([N+](=O)[O-])c1S(=O)(=O)c1ccccc1,5.18,–
COc1ccc(C(=O)O/N=C(\N)Cc2ccc(Cl)c(Cl)c2)cc1OC,5.86,–
COC(=O)C(C(C)=O)C1=C/C(=N\S(=O)(=O)c2ccc(C)cc2)c2ccccc2C1=O (stereo not given),5.01,–
CCCOc1ccc(CN(CCC#N)C(=S)NC(=O)c2ccccc2)cc1,4.64,–
Cn1c(/C=C/c2ccc([N+](=O)[O-])o2)nc2ccccc2c1=O,5.20,–
COc1ccc(-n2cc(-c3ccccc3)c3c(=S)nc[nH]c32)cc1,4.42,–
CCOc1ccccc1N1C(=O)CC(Sc2n[nH]c(-c3ccccc3)n2)C1=O (stereo not given),5.39,–
COc1ccc(C(=O)O/N=C(\N)c2ccccc2Cl)cc1OC,4.92,–
O=c1c2ccccc2[se]n1-c1ccccc1,6.06,–
CCOc1ccc(-n2cc(-c3ccccc3)c3c(=O)[nH]cnc32)cc1,4.86,–
Cc1ccc(CNC(=O)c2ccc(Cn3nc(C)c(Cl)c3C)o2)cc1,4.76,–
c1ccc(Nc2cccc(Nc3ccccc3)n2)cc1,5.04,–
CCCOc1ccc(N2C(=O)CC(N3CCC(O)(c4cccc(C(F)(F)F)c4)CC3)C2=O)cc1 (stereo not given),5.13,–
O=C(OCn1ncc(Br)c(Br)c1=O)c1ccccc1Cl,5.68,–
Nc1nc(N)c(C=Nc2ccc(Br)cc2)c(Nc2ccc(Br)cc2)n1,4.85,–
COc1ccc(-c2cc(C3CC3)nc3sc(C#N)c(N)c23)cc1,5.16,–
COc1ccc(/C(N)=N/OC(=O)c2ccc3c(c2)OCO3)cc1,5.12,–
CC(=O)c1ccc(NC(=S)NC(C)c2ccc(Cl)cc2Cl)cc1 (stereo not given),4.86,–
CC(C)C(=O)N1CCN(c2ccccc2NC(=O)c2ccc([N+](=O)[O-])o2)CC1,5.05,–
CCCCCCC(=O)N(O)C1CC(=O)N(c2ccc(C)cc2)C1=O (stereo not given),5.16,–
CC(C)(C)OC(=O)N[C@@H](Cc1ccccc1)c1nnc(S(=O)(=O)Cc2cccc(F)c2)o1,5.64,–
S=C(NCCCc1ccccc1)Nc1ccc(Cl)cc1,5.15,–

SMILES,pIC50,IC50
CNC(=O)c1nnsc1S(=O)(=O)c1ccc(Cl)cc1,4.94,–
COc1ccccc1N1C(=O)CC(Sc2n[nH]c(-c3cccc(C)c3)n2)C1=O (stereo not given),5.11,–
Clc1ccccc1OCc1nnc(-c2ccccc2Br)o1,4.48,–
Cc1ccc(OCC(=O)O/N=C(\N)Cc2ccc(Cl)cc2)cc1,4.21,–
Cc1cc(C)c(CSc2ncc(-c3ccc([N+](=O)[O-])cc3)[nH]2)c(C)c1,4.76,–
CC(C)CN(CC(C)C)C(=S)Nc1ccc(Cl)cc1,4.26,–
COc1ccc2cc3cc(C(=O)NCCN4CCc5ccccc5C4)oc3nc2c1,5.48,–
N/C(=N\OC(=O)c1ccc(F)cc1)c1ccc(Br)cc1,5.50,–
CC1(CC(=O)N/N=C/c2ccc(OCc3ccc(Cl)cc3Cl)cc2)OCCCO1,5.37,–
Nc1nc(-c2ccc(Br)cc2)cs1,4.75,–
O=C(NNC(=S)Nc1ccc(Cl)cc1)c1ccccc1OC(F)F,5.06,–
CCCCCCCCCCOC(=O)Cn1c(COc2ccccc2OC)[n+](C)c2ccccc21,4.92,–
CCOC(=O)c1ccc(N=c2ssnc2Cl)cc1,5.65,–
N/C(=N\OC(=O)c1ccc(Cl)cc1)c1ccc(Cl)cc1,–,> 100 µM (inactive)
O=C(c1cc(COc2ccc(F)cc2Cl)on1)N1CCN(c2cnccn2)CC1,5.26,–
COc1ccc(-c2sc3cc4c(cc3c2C#CC2(N)CCCCC2)OCO4)cc1,5.03,–
CCOC(=O)c1ccc(N2C(=O)C=CC2=O)cc1,6.32,–
Fc1c(F)c(C(F)(F)F)c(F)c(F)c1N/N=C\c1cccs1,5.13,–
COC(=O)c1c(N2C(=O)CC(Sc3ccccc3C(=O)O)C2=O)sc2c1CCCC2 (stereo not given),5.50,–
Nc1ccccc1C(=O)/C=C/c1ccc2c(c1)OCO2,4.72,–
CCOC(=O)/C=C/C(=O)Nc1cccc([N+](=O)[O-])c1,5.58,–
N/C(=N\OC(=O)CCC1CCCC1)c1cccc([N+](=O)[O-])c1,4.97,–
Cc1ccc(F)c([C@H]2C3C=CCC(c4ccccc4)C3C(=O)N2Cc2ccccc2)c1 (stereo not given in full),4.83,–

SMILES,pIC50,IC50
O=C(NC(=S)Nc1ccccc1N1CCCC1)c1ccc([N+](=O)[O-])cc1,4.71,–
CN=C(Nc1cc(Cl)ccc1Cl)SC1CC(=O)N(c2ccc(C(=O)OC)cc2)C1=O (stereo not given),4.81,–
O=C(O)/C=C/C(=O)c1ccc2c(c1)CCc1ccccc1-2,5.29,–
Cc1cc(/C=C\c2ccc3cc(N(C)C)ccc3[n+]2C)c(C)n1-c1ccccc1,5.23,–
N/C(=N\OC(=O)CCC1CCCC1)c1ccccc1,4.53,–
CCOC(=O)/C=C/C(=O)OCC(=O)Nc1ccc([N+](=O)[O-])cc1,5.13,–
O=C1CC(Sc2nnnn2-c2ccccc2)C(=O)N1c1cccc(Cl)c1 (stereo not given),5.53,–
Cc1ccc(NC(=O)c2ccc(Cl)c(N3C(=O)C=CC3=O)c2)cc1,5.38,–
Cc1ccc(NC(=S)Nc2ccc(Cl)c(Cl)c2)c(OC(F)F)c1,4.84,–
Cc1cc(C)cc(N2C(=O)CC(Sc3nnnn3-c3ccccc3)C2=O)c1 (stereo not given),5.90,–
CCCCNC(=S)Nc1ccc(C(F)(F)F)cc1,4.92,–
Cc1ccc(F)c([C@H]2[C@@H]3C=CCC[C@@]3(C)C(=O)N2Cc2ccccc2)c1,4.74,–
O=c1c2ccccc2nc(/C=C/c2ccc([N+](=O)[O-])o2)n1CCCO,5.24,–
NC(=NCCCCCCN=C(N)/N=C(\N)Nc1ccc(Cl)cc1)/N=C(\N)Nc1ccc(Cl)cc1,–,> 100 µM (inactive)
O=C1CS(=O)(=O)N(Cc2cccc(F)c2)c2ccc(Br)cc21,4.90,–
Cc1ccc(NC2=C/C(=N\S(=O)(=O)c3cccs3)c3ccccc3C2=O)c(C)c1,4.92,–
O=C(Nc1cccc(N2C(=O)C=CC2=O)c1)c1cccs1,5.60,–
CC(C)(C)c1ccc(CN2N=Nc3ccccc3S2(=O)=O)cc1,5.25,–
Cc1ccccc1/C=C/C(=O)c1ccc([N+](=O)[O-])o1,5.82,–
CC(=O)N1CCN(c2cc(N3CCc4ccccc4C3)c(F)cc2[N+](=O)[O-])CC1,4.46,–
O=C1C2C3C=CC(CO)(O3)C2C(=O)N1c1ccccc1-c1ccccc1 (stereo not given),5.74,–
Cn1c(Cl)cnc1C1CC(=O)c2cc(Cl)ccc2O1 (stereo not given),5.35,–
O=S(=O)(CCN(CCS(=O)(=O)C(F)(F)F)CC1CCCO1)C(F)(F)F (stereo not given),4.95,–

# From PubChem BioAssay AID504544 (Sanford-Burnham Center for Chemical Genomics, 2011)
